Measurements reported in US20060167106A1, “Compounds acting at the centrosome” (priority 2004, published 2006).
“Also recorded” adds a separate entry of the source. Residues, ends and D or L forms follow the SMILES beside them. *: point of attachment. Cbz = O=C(OCc1ccccc1)*

Columns and labels:
CHO-α-tubulin-YFP cells = test: α-tubulin-YFP localization in CHO-α-tubulin-YFP cells (fluorescence imaging); assay type: cell-based, Chinese hamster; conditions: for accumulation of tubulin-YFP at the centrosomes: 24 hours; for accumulation of tubulin in the centrosomes (overall statement): CHO-tubulin-YFP cells, concentration and time not given
Description: Wild-type Chinese Hamster Ovary cells (WT CHO) cells were maintained in Ham's F-12 medium supplemented with 10% fetal bovine serum (FBS; HyClone, Logan, Utah). Cells of low density (˜20%) growing on 2-well chambered cover-slips (Labtek (Campbell, Calif.) or Fisher Scientific) were transfected with a mammalian expression vector encoding α-tubulin-YFP (Clontech, Palo Alto, Calif.) with the use of FuGENE 6 (Roche Molecular Biochemicals, Indianapolis, Ind.), according to the manufacturer's instructions. Twenty-four hours after transfection, the cells were cultured in 400 μg/ml G418 (Invitrogen, Carlsbad, Calif.)-containing selection medium for 2 weeks. Living cells were examined using a fluorescent microscope for α-tubulin-YFP expression. Cells in single colonies containing microtubules labeled with α-tubulin-YFP were lifted and expanded in G418-containing medium. Expression of α-tubulin-YFP was confirmed by the presence of the tubulin-YFP labeled microtubule pattern identical to immunostained microtubule pattern of non-transfected cells, as well as by subjecting the cells to Western blot analysis using an anti-GFP antibody (Roche Molecular Biochemicals, Basel, Switzerland) and confirming the correct mass of the α-tubulin-YFP chimera protein. Expressed tubulin-YFP was detected as a single band in Western blots. The tubulin-YFP expressing cell lines (referred as CHO-α-tubulin-YFP cells) were used in the studies.
CHO-α-tubulin-YFP cells were cultured in 2-well chambered cover-slips (Labtek (Campbell, Calif.) or Fisher Scientific) 24 hours before treatment. For comparison of the centrosomal effects of treatment with Compound 1, Compound 1+Taxol, and Taxol, CHO-α-tubulin-YFP cells were treated with Compound 1, Compound 1+Taxol, Taxol, or equivalent concentrations of DMSO-containing media for various time periods before imaging. For comparison of the effects of Compound 1 and known proteasome inhibitors on centrosomes, the nucleus, and perinuclear regions, CHO-α-tubulin-YFP cells were treated with Compound 1, ALLN (Calbiochem, San Diego, Calif.), lactacystin (Calbiochem, San Diego, Calif.) or MG132 (Calbiochem, San Diego, Calif.), and imaged at various time points from 3 hours to 24 hours after treatment.
Tubulin-YFP fluorescence in living cells or fixed cells was captured using a standard filter for FITC and objectives of 20× or 60× magnification on a Nikon TE300 microscope with a Leica DC50 color digital camera (Leica, Bannockburn, Ill.) or a CoolSnap HQ Monochrome CCD camera (Photonetrics, Tucson, Ariz.). The Leica DC50 and CoolSnapHQ cameras were controlled with Leica DC50 software and MetaVue/MetaMorph software, respectively (Universal Imaging Corp, Downingtown, Pa.).
CHO-α-tubulin-YFP cells were cultured in 2-well chambered cover-slips (Labtek (Campbell, Calif.) or Fisher Scientific) 24 hours before treatment. For comparison of effects on the centrosome, nucleus, and perinuclear regions, cells were treated with Compound 1 and known proteasome inhibitors including ALLN, MG132, Lactacystin, MG115, clasto-Lactacystin β-Lactone (cLβL), and Epoxomicin (10 μM final concentration for all except ALLN, which was used at 100 μM final concentration) (proteasome inhibitors were from Calbiochem, San Diego, Calif.) and imaged at various time points up to 24 hours during treatment.
Tubulin-YFP fluorescence in living cells or fixed cells was captured using a standard filter for FITC and objectives of 20× or 60× magnification on the Nikon TE300 microscope/digital imaging system.

Hsp70 = Hsp70 Western blotting in MDA-435 cells; assay type: cell-based; conditions: 0.5 μM; for percentage change in Hsp70 expression relative to DMSO control: normalized to background and GAPDH
Experimental: Calculations of the percentage changes were made by using the automated band analysis tools of the Kodak 1D (v.3.6.3) program. Band intensities were normalized to background and GAPDH.
MDA-435 breast cancer cells were grown in 100 mm plastic-tissue culture dishes and treated for 6 and 24 hours with 0.5 μM Taxol, Compound 1, Taxol+Compound 1, MG132, ALLN, or DMSO. After treatment, cells were washed in PBS and cell lysates were prepared by adding 100 μL of lysis buffer, which contained 20 mM Tris-HCl (pH 7.5), 150 mM NaCl, 1 mM Na2EDTA, 1 mM EGTA, 1% Triton, 2.5 mM sodium pyrophosphate, 1 mM β-glycerophosphate, 1 mM Na3VO4 and 1 μg/ml leupeptin (Cell Signaling Technology, Beverly, Mass.) supplemented with 1 mM PMSF (Sigma, St. Louis, Mo.) immediately before use, on ice for 1 hour. After scraping, the lysates were cleared by centrifugation at 13,000 RPM for 10 minutes at 4° C. Protein content was determined using a Bradford assay and bovine serum albumin as a standard (Bio-Rad Laboratories, Hercules, Calif.). Samples were solubilized by boiling in SDS sample buffer and subjected to SDS-PAGE. The proteins were subsequently transferred to a PVDF membrane (Bio-Rad, Hercules, Calif.). After blocking with 5% nonfat milk in TBS for 1 hour, the blots were incubated with a mouse monoclonal anti-Hsp70 antibody, which is specific for the inducible form of Hsp70 (Clone C92F3A-5, 1:1000 dilution, Stressgen Biotechnologies Corp., Victoria, B.C., Canada) or a rabbit polyclonal anti-GAPDH antibody (1:2000 dilution, Abcam, Cambridge, Mass.) for 2 hours at room temperature. The horseradish-peroxidase-conjugated secondary antibodies, anti-mouse horse radish peroxidase, (1:2000, Bio-Rad, Hercules, Calif.) and goat anti-rabbit polyclonal horse radish peroxidase (1:2000, Abcam, Cambridge, Mass.)) were diluted in blocking buffer and incubated with the blot for 1 hour at room temperature. The secondary antibodies were detected by enhanced chemiluminescence (ECL, Amersham Biosciences, Piscataway, N.J.) and imaged using a Kodak 440 Image Station.

[1] = molecular target: T1, bovine red blood cell 20S proteasome (Bos taurus, UniProt Q32KL2); test: 20S Proteasome Assay (in vitro, Suc-Leu-Val-Tyr-AMC); assay type: biochemical; conditions: isolated 20S proteasome
T1 construct: bovine red blood cell 20S proteasome; purchased Calbiochem; host or cells: purified from bovine red blood cells
Experimental: 190 μl of reaction buffer (500 mM HEPES, 10 nM EDTA, pH 7.6), containing 0.03% SDS was pre-incubated for 5 minutes at 37° C. in the presence of 0.2 μg of bovine red blood cell 20S proteasome (Calbiochem, San Diego, Calif.) for temperature equilibration. Subsequently, inhibitors or Compound 1 were added to the reaction mixture at a final DMSO concentration of 0.5%. The reaction was initiated by adding 10 μl of the peptide-AMC substrate (Calbiochem, San Diego, Calif.) to each well. The emitted fluorescence was then measured every third minute at 37° C. for 90 minutes by a fluorescence plate reader (FlexStation II, Molecular Devices, Sunnyvale, Calif.) at 460 nm (λex360 nm) wavelength.
The buffers and reagents for the assay were purchased from Calbiochem (20S Proteasome Assay Kit; Calbiochem, San Diego, Calif.). The principle of the assay is that the release of free AMC (7-Amino-4-methylcoumarin) following degradation of the substrate results in a fluorescent signal that is a measure of proteasome activity. The quantitative analysis of 20S proteasome activity was assayed as described.

[2] = tested on: MDA-435 breast cancer cells; test: Multi-ubiquitin Western blotting in MDA-435 cells; assay type: cell-based; conditions: for increase of ubiquitinated proteins of the cell lysates: 500 nM
Experimental: Louis, Mo.) immediately before use, on ice for 1 hour. After scraping, the lysates were cleared by centrifugation at 13,000 RPM for 10 minutes at 4° C. Protein content was determined using a Bradford assay and bovine serum albumin as a standard (Bio-Rad Laboratories, Hercules, Calif.). Samples were solubilized by boiling in SDS sample buffer and subjected to SDS-PAGE. The proteins were subsequently transferred to a PVDF membrane (Bio-Rad, Hercules, Calif.). […] The alkaline phosphatase-conjugated secondary antibodies (Invitrogen, Carlsbad, Calif.) were diluted in blocking buffer and incubated with the blot for 1 hour at room temperature. The secondary antibodies were detected by the Western Breeze Chemiluminescent Kit (Invitrogen, Carlsbad, Calif.) and imaged using a Kodak 440 Image Station. Proteins targeted for degradation by the ubiquitin-dependent proteolytic pathway are tagged with multi-ubiquitin molecules. […] In this assay, accumulation of multi-ubiquitinated proteins in the cells is indicative of the impairment of proteasome activity.

26S proteasome = test: Proteasome-sensor cells (HEK-293, GFP chimera), fluorescence imaging; assay type: cell-based; conditions: HEK-293, 100 nM, 24 hours
Description: Specifically, the proteasome-sensor cells are HEK-293 cells stably transfected with a vector (proteasome-sensor vector) that encodes naturally-occurring reef coral Zoanthus sp. green fluorescent protein (GFP) fused to a specific degradation motif that targets the fusion protein for removal by the 26S proteasome. The background fluorescence observed in normal cells with active proteasomes is low. When proteasomes are inhibited, the fluorescent protein quickly accumulates. […] Millennium Pharmaceuticals, Inc., Cambridge, Mass.). […] Velcade (Millennium Pharmaceuticals Inc.) was used as a positive control in this assay (at 5 nM, 50 nM, 500 nM or 5 μM). Velcade stock solution was prepared according to the manufacturer's instructions. GFP fluorescence of the cells was imaged at various time points using a standard filter for FITC with the Nikon TE300 microscope/digital imaging system described herein.

CHO cells = test: Cell morphology, simultaneous time-lapse imaging of CHO cells; assay type: cell-based, Chinese hamster
Experimental: CV-1 cells and CHO cells were previously cultured in 2-well chambered cover-slips for 48 hours and incubated in 15 mM HEPES buffer-containing Ham's F-12/DMEM medium with different compounds. The cells were imaged using phase contrast settings with the Nikon TE300 microscope/digital imaging system. The cells were imaged ‘simultaneously’ under control of MetaVue software by capturing frames for cells from different conditions at the same time period using a motorized automated XYZ stage.
To track the effect of Compound 1 on live cells, non-transfected CV-1 cells with were treated with 500 nM Compound 1 and phase contrast time-lapse images were taken every 10 seconds. […] A very low concentration of Taxol (10 nM) was used.

| Compound | accumulation of α-tubulin-YFP at the centrosomes (CHO-α-tubulin-YFP cells; CHO cells, 10 μM, 5 hours) | accumulation of α-tubulin-YFP in the nucleus (CHO-α-tubulin-YFP cells; CHO cells, 10 μM, 8 hours post-treatment) | accumulation of tubulin-YFP at the centrosomes (CHO-α-tubulin-YFP cells; CHO cells, 10 μM) | accumulation of tubulin in the centrosomes (overall statement) (CHO-α-tubulin-YFP cells) | accumulation of tubulin at the centrosomes versus in the nucleus (overall statement) (CHO-α-tubulin-YFP cells; cells treated, concentration not given) | induction of Hsp70 expression (Hsp70; 6 and 24 hours) | percentage change in Hsp70 expression relative to DMSO control (Hsp70; 6 hours of treatment) [%] | percentage change in Hsp70 expression relative to DMSO control (Hsp70; 24 hours of treatment) [%] | proteasome inhibitory activity in vitro (overall statement) [1] | proteasome activity in vitro ([1]; 5 nM) | increase of ubiquitinated proteins of the cell lysates ([2]; 6 hours of treatment in cell culture) | increase of ubiquitinated proteins of the cell lysates ([2]; 24 hours of treatment in cell culture) | accumulation of multi-ubiquitinated proteins ([2]; MDA-435 cells, 0.5 μM, 6 and 24 hours) | accumulation of proteasome-sensor protein in cells (26S proteasome) | effect on cell morphology (CHO cells; CHO cells, 10 nM, up to 210 minutes) | cell death (CHO cells; cells, after a certain period of treatment) | accumulation of tubulin-YFP at the centrosomes (CHO-α-tubulin-YFP cells; CHO cells, 0.1 μM) |
| --- | --- | --- | --- | --- | --- | --- | --- | --- | --- | --- | --- | --- | --- | --- | --- | --- | --- |
| CC(C)C[C@@H](C=O)NC(=O)[C@H](CC(C)C)NC(=O)[C@H](CC(C)C)NC(=O)OCc1ccccc1 [MG132] (Cbz-Leu-Leu-Leu-aldehyde) | accumulation of α-tubulin-YFP at the centrosomes and perinuclear regions | accumulation of α-tubulin-YFP in the nucleus; also recorded: caused the accumulation of YFP-tubulin in the nucleus | accumulation of tubulin-YFP at the centrosomes | caused accumulation of tubulin-YFP at the centrosomes and in the perinuclear region | both accumulation of tubulin at the centrosomes and in the nucleus | not as potent an inducer as Compound 1; also recorded: also induced Hsp70 expression after 6 and 24 hours of treatment, but did so less potently than Compound 1 or Compound 1+Taxol | 472 | 3016 | exhibited proteasome inhibitory activity | detectable decrease in proteasome activity | 212.58 | 357.82 | caused similar accumulation of multi-ubiquitinated proteins | – | – | – | – |
| CC(=O)O[C@H]1C(=O)[C@@]2(C)[C@H]([C@H](OC(=O)c3ccccc3)[C@]3(O)C[C@H](OC(=O)[C@H](O)[C@@H](NC(=O)c4ccccc4)c4ccccc4)C(C)=C1C3(C)C)[C@]1(OC(C)=O)CO[C@@H]1C[C@@H]2O [Taxol] | – | – | – | no such effect | – | – | 86 | 556 | – | – | – | – | – | lack of proteasome-sensor protein in cells | did not cause significant cell morphological changes | cause cell death after a certain period of treatment | lack of accumulation of tubulin-YFP at the centrosomes |
